What was measured:
human GLP-1R [1] = molecular target: human GLP-1R (Homo sapiens, UniProt P43220, L260F); experiment: CHO GLP-1R Clone C6 cAMP HTRF agonist assay (Assay 2, low receptor density); type: cell-based; conditions: for EC50: CHO GLP-1R clone C6, cAMP HTRF, geometric mean; for Emax: CHO GLP-1R clone C6, arithmetic mean, relative to saturating GLP-1 (1 μM)
Source text: In Table 5 and Table 6, assay data are presented to two (2) significant figures as the geometric mean (EC50s) and arithmetic mean (Emax) based on the number of replicates listed (Number). A blank cell means there was no data for that Example or the Emax was not calculated.

human GLP-1R [2] = molecular target: human GLP-1R (Homo sapiens, UniProt P43220, G168S); experiment: CHO GLP-1R Clone H6 cAMP HTRF agonist assay (Assay 1, high receptor density); type: cell-based; conditions: for EC50: CHO GLP-1R clone H6, cAMP HTRF, geometric mean; for Emax: CHO GLP-1R clone H6, arithmetic mean, relative to saturating GLP-1 (1 μM), read-out: Assay 1 Emax (%)
How it was run: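 Averaging differs by parameter: a geometric mean for EC50 and an arithmetic mean for Emax, each over the stated replicate number.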

Sequence of human GLP-1R (Homo sapiens, UniProt P43220, G168S) (P43220 24-463 G168S): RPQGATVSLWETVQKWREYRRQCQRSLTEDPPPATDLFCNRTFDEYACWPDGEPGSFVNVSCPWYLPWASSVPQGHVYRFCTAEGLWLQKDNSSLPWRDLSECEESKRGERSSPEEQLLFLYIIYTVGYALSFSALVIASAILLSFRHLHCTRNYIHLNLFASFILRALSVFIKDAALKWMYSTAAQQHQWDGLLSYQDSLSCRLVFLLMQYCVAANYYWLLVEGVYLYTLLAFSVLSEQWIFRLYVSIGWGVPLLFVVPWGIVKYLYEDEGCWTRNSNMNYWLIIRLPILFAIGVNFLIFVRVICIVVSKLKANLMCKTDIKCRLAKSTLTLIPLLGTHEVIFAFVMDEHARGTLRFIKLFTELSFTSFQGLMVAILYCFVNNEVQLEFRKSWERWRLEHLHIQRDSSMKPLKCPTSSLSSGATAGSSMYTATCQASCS
Sequence of human GLP-1R (Homo sapiens, UniProt P43220, L260F) (P43220 24-463 L260F): as the sequence (P43220 24-463 G168S) above, with S145G, L237F counted along it

| SMILES | EC50 (human GLP-1R [1]) [nM] | Emax (human GLP-1R [1]) [%] | EC50 (human GLP-1R [2]) [nM] | Emax (human GLP-1R [2]) [%] |
| --- | --- | --- | --- | --- |
| Cn1c(CN2CCC(c3cccc(OCc4ccccc4F)n3)CC2)nc2ccc(C(=O)O)cc21 [Compound 226B, 2-[(4-{6-[(2-fluorobenzyl)oxy]pyridin-2-yl}piperidin-1-yl)methyl]-1-methyl-1H-benzimidazole-6-carboxylic acid] | 29 | 74 | 2.7 | 73 |
| Cn1c(CN2CCC(c3cccc(OCc4cccc(F)c4F)n3)CC2)nc2ccc(C(=O)O)cc21 [Compound 227B, 2-[(4-{6-[(2,3-difluorobenzyl)oxy]pyridin-2-yl}piperidin-1-yl)methyl]-1-methyl-1H-benzimidazole-6-carboxylic acid] | 48 | 79 | 4 | 64 |
| Cn1c(CN2CCC(c3cccc(OCc4ccc(OC(F)(F)F)cc4)n3)CC2)nc2ccc(C(=O)O)cc21 [Compound 228B, 1-methyl-2-{[4-(6-{[4-(trifluoromethoxy)benzyl]oxy}pyridin-2-yl)piperidin-1-yl]methyl}-1H-benzimidazole-6-carboxylic acid] | 99 | 81 | 6 | 73 |
| Cn1c(CN2CCC(c3cccc(OCc4ccccc4OC(F)(F)F)n3)CC2)nc2ccc(C(=O)O)cc21 [Compound 229B, 1-methyl-2-{[4-(6-{[2-(trifluoromethoxy)benzyl]oxy}pyridin-2-yl)piperidin-1-yl]methyl}-1H-benzimidazole-6-carboxylic acid] | 19 | 75 | 1 | 76 |
| Cn1c(CN2CCC(c3cccc(OCc4cccc(C#N)c4)n3)CC2)nc2ccc(C(=O)O)cc21 [Compound 231B, 2-[(4-{6-[(3-cyanobenzyl)oxy]pyridin-2-yl}piperidin-1-yl)methyl]-1-methyl-1H-benzimidazole-6-carboxylic acid] | 4.4 | 95 | 0.3 | 80 |
| Cn1c(CN2CCC(c3cccc(OCc4ccc(C(F)(F)F)cc4)n3)CC2)nc2ccc(C(=O)O)cc21 [Compound 232B, 1-methyl-2-{[4-(6-{[4-(trifluoromethyl)benzyl]oxy}pyridin-2-yl)piperidin-1-yl]methyl}-1H-benzimidazole-6-carboxylic acid] | 140 | 76 | 8.6 | 64 |
| Cn1c(CN2CCC(c3cccc(OCc4cc(F)ccc4F)n3)CC2)nc2ccc(C(=O)O)cc21 [Compound 233B, 2-[(4-{6-[(2,5-difluorobenzyl)oxy]pyridin-2-yl}piperidin-1-yl)methyl]-1-methyl-1H-benzimidazole-6-carboxylic acid] | 9.6 | 84 | 0.56 | 73 |
| CCn1cnnc1Cn1c(CN2CCC(c3cccc(OCc4ccc(Cl)cc4F)n3)CC2)nc2ccc(C(=O)O)cc21 [Compound 237B, 2-[(4-{6-[(4-chloro-2-fluorobenzyl)oxy]pyridin-2-yl}piperidin-1-yl)methyl]-1-[(4-ethyl-4H-1,2,4-triazol-3-yl)methyl]-1H-benzimidazole-6-carboxylic acid] | 39 | 88 | 3.2 | 68 |
| CN(C)CCn1c(CN2CCC(c3cccc(OCc4ccc(Cl)cc4F)n3)CC2)nc2ccc(C(=O)O)cc21 [Compound 238B, 2-[(4-{6-[(4-chloro-2-fluorobenzyl)oxy]pyridin-2-yl}piperidin-1-yl)methyl]-1-[2-(dimethylamino)ethyl]-1H-benzimidazole-6-carboxylic acid] | 11 | 100 | 0.71 | 81 |
| O=C(O)c1ccc2nc(CN3CCC(c4cccc(OCc5ccc(Cl)cc5F)n4)CC3)n(CCN3CCCC3=O)c2c1 [Compound 239B, 2-[(4-{6-[(4-chloro-2-fluorobenzyl)oxy]pyridin-2-yl}piperidin-1-yl)methyl]-1-[2-(2-oxopyrrolidin-1-yl)ethyl]-1H-benzimidazole-6-carboxylic acid] | 24 | 98 | 1.2 | 84 |
| C[C@H]1CN(c2cccc(OCc3ccc(C#N)cc3F)n2)CCN1Cc1nc2ccc(C(=O)O)cc2n1Cc1cocn1 [Compound 241B, 2-{[(2S)-4-{6-[(4-cyano-2-fluorobenzyl)oxy]pyridin-2-yl}-2-methylpiperazin-1-yl]methyl}-1-(1,3-oxazol-4-ylmethyl)-1H-benzimidazole-6-carboxylic acid] | 160 | 71 | 9.4 | 69 |
| CN1CC(Cn2c(CN3CCC(c4cccc(OCc5ccc(Cl)cc5F)n4)CC3)nc3ccc(C(=O)O)cc32)C1 [Compound 243B, 2-[(4-{6-[(4-chloro-2-fluorobenzyl)oxy]pyridin-2-yl}piperidin-1-yl)methyl]-1-[(1-methylazetidin-3-yl)methyl]-1H-benzimidazole-6-carboxylic acid] | 84 | 83 | 4.7 | 71 |
| Cc1nnc(Cn2c(CN3CCC(c4cccc(OCc5ccc(Cl)cc5F)n4)CC3)nc3ccc(C(=O)O)cc32)n1C [Compound 244B, 2-[(4-{6-[(4-chloro-2-fluorobenzyl)oxy]pyridin-2-yl}piperidin-1-yl)methyl]-1-[(4,5-dimethyl-4H-1,2,4-triazol-3-yl)methyl]-1H-benzimidazole-6-carboxylic acid] | 460 | 66 | 31 | 81 |
| CCn1cnnc1Cn1c(CN2CCN(c3cccc(OCc4ccc(Cl)cc4F)n3)C[C@@H]2C)nc2ccc(C(=O)O)cc21 [Compound 245B, 2-{[(2S)-4-{6-[(4-chloro-2-fluorobenzyl)oxy]pyridin-2-yl}-2-methylpiperazin-1-yl]methyl}-1-[(4-ethyl-4H-1,2,4-triazol-3-yl)methyl]-1H-benzimidazole-6-carboxylic acid] | 35 | 89 | 1.5 | 74 |
| N#Cc1ccc(COc2cccc(C3CCN(Cc4nc5ccc(C(=O)O)nc5n4Cc4cnco4)CC3)n2)c(F)c1 [Compound 248B, 2-[(4-{6-[(4-cyano-2-fluorobenzyl)oxy]pyridin-2-yl}piperidin-1-yl)methyl]-3-(1,3-oxazol-5-ylmethyl)-3H-imidazo[4,5-b]pyridine-5-carboxylic acid] | 32 | 79 | 2 | 82 |
| C[C@H]1CN(c2cccc(OCc3ccc(C#N)cc3F)n2)CCN1Cc1nc2ccc(C(=O)O)cc2n1Cc1cncn1C [Compound 249B, 2-{[(2S)-4-{6-[(4-cyano-2-fluorobenzyl)oxy]pyridin-2-yl}-2-methylpiperazin-1-yl]methyl}-1-[(1-methyl-1H-imidazol-5-yl)methyl]-1H-benzimidazole-6-carboxylic acid] | 35 | 78 | 1.6 | 84 |
| CC1(Cn2c(CN3CCC(c4cccc(OCc5ccc(Cl)cc5F)n4)CC3)nc3ccc(C(=O)O)cc32)COC1 [Compound 251B, 2-[(4-{6-[(4-chloro-2-fluorobenzyl)oxy]pyridin-2-yl}piperidin-1-yl)methyl]-1-[(3-methyloxetan-3-yl)methyl]-1H-benzimidazole-6-carboxylic acid] | 6.8 | 93 | 0.59 | 83 |
| Cc1nnc(CCn2c(CN3CCC(c4cccc(OCc5ccc(Cl)cc5F)n4)CC3)nc3ccc(C(=O)O)cc32)o1 [Compound 253B, 2-[(4-{6-[(4-chloro-2-fluorobenzyl)oxy]pyridin-2-yl}piperidin-1-yl)methyl]-1-[2-(5-methyl-1,3,4-oxadiazol-2-yl)ethyl]-1H-benzimidazole-6-carboxylic acid] | 20 | 87 | 2 | 84 |
| Cc1nnc(Cn2c(CN3CCC(c4cccc(OCc5ccc(Cl)cc5F)n4)CC3)nc3ccc(C(=O)O)cc32)o1 [Compound 254B, 2-[(4-{6-[(4-chloro-2-fluorobenzyl)oxy]pyridin-2-yl}piperidin-1-yl)methyl]-1-[(5-methyl-1,3,4-oxadiazol-2-yl)methyl]-1H-benzimidazole-6-carboxylic acid] | 72 | 87 | 5 | 65 |
| Cn1cnc(Cn2c(CN3CCC(c4cccc(OCc5ccc(Cl)cc5F)n4)CC3)nc3ccc(C(=O)O)cc32)c1 [Compound 255B, 2-[(4-{6-[(4-chloro-2-fluorobenzyl)oxy]pyridin-2-yl}piperidin-1-yl)methyl]-1-[(1-methyl-1H-imidazol-4-yl)methyl]-1H-benzimidazole-6-carboxylic acid] | 5800 | 85 | 190 | 62 |
| Cn1ccnc1Cn1c(CN2CCC(c3cccc(OCc4ccc(Cl)cc4F)n3)CC2)nc2ccc(C(=O)O)cc21 [Compound 256B, 2-[(4-{6-[(4-chloro-2-fluorobenzyl)oxy]pyridin-2-yl}piperidin-1-yl)methyl]-1-[(1-methyl-1H-imidazol-2-yl)methyl]-1H-benzimidazole-6-carboxylic acid] | 53 | 68 | 3.4 | 79 |
| CCn1c(CN2CCC(c3cccc(OCc4ccc(Cl)cc4F)n3)CC2)nc2ccc(C(=O)O)cc21 [Compound 257B, 2-[(4-{6-[(4-chloro-2-fluorobenzyl)oxy]pyridin-2-yl}piperidin-1-yl)methyl]-1-ethyl-1H-benzimidazole-6-carboxylic acid] | 88 | 82 | 8.6 | 78 |

Source: US20250235460A1, “COMBINATION THERAPY USING GLUCOSE-DEPENDENT INSULINOTROPIC POLYPEPTIDE RECEPTOR ANTAGONIST COMPOUNDS AND GLP-1 RECEPTOR AGONIST COMPOUNDS” (Pfizer Inc., priority 2024, published 2025)
